ChEMBL document CHEMBL1909046, “DrugMatrix in vitro pharmacology data”

Tests used:
[1] = target: 5-hydroxytryptamine receptor 4 (Cavia porcellus, UniProt O70528); assay type: cell membranes, Dunkin-Hartley, Striatum, Membrane
Cytochrome P450 1A2 = target: T1, Cytochrome P450 1A2 (Homo sapiens, UniProt P05177)
T1 sequence (P05177 whole entry): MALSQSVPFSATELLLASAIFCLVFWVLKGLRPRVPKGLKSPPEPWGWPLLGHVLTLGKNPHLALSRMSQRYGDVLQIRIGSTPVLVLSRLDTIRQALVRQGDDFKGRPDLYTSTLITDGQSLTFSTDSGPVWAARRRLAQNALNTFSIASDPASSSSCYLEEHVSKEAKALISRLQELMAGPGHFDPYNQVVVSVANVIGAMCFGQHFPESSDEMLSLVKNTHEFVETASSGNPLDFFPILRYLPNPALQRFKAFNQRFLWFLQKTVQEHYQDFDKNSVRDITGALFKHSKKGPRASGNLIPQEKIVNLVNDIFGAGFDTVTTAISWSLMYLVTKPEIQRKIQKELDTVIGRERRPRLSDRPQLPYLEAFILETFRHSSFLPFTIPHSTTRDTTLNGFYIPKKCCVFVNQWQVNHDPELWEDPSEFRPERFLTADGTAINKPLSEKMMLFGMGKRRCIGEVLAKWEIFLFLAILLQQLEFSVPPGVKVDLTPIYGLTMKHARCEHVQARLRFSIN

Cytochrome P450 2C9 = Cytochrome P450 2C9 (Homo sapiens, UniProt P11712)
Androgen receptor = target: T2, Androgen receptor (Rattus norvegicus, UniProt P15207)
T2 sequence (P15207 whole entry): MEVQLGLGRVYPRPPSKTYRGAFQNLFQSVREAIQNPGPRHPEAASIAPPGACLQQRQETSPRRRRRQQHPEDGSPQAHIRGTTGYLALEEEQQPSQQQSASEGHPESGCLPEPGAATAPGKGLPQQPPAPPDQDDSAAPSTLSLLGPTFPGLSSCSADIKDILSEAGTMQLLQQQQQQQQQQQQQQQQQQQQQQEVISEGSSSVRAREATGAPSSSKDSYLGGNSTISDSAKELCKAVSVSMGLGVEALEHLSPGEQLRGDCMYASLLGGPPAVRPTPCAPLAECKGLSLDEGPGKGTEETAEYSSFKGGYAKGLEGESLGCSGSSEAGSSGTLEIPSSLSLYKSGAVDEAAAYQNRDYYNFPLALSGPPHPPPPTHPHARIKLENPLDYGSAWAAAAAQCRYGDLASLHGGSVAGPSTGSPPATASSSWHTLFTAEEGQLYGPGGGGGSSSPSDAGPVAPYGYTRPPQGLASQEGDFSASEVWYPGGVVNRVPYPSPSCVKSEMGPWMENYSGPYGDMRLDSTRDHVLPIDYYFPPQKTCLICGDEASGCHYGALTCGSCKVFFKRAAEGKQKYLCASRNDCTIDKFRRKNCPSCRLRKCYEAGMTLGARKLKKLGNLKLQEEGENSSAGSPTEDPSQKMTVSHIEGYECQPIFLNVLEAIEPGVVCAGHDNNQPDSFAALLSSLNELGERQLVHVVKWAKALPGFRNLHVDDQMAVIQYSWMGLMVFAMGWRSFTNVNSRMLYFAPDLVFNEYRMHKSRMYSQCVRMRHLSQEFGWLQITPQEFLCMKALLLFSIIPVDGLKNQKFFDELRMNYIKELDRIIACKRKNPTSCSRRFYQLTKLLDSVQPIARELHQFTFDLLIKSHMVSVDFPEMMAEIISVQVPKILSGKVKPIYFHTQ

Cytochrome P450 2C19 = Cytochrome P450 2C19 (Homo sapiens, UniProt P33261); conditions: bti-tn-5b1-4
Also: in other assays of this panel Not Active means under 50% inhibition at 10 µM.

Chain of Cytochrome P450 2C19 (P33261 whole entry): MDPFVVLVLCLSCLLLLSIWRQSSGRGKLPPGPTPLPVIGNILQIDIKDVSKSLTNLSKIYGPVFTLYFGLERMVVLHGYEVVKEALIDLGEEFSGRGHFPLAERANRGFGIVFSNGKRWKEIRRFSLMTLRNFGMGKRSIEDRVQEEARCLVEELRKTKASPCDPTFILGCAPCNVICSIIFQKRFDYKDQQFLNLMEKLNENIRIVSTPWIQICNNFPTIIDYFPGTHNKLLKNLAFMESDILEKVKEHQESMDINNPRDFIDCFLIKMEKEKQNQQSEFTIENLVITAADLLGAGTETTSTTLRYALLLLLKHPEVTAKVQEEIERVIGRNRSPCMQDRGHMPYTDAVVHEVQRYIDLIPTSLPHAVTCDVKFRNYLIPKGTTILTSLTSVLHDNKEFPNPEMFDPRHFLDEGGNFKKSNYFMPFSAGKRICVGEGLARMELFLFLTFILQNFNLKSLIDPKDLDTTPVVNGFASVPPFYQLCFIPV
Chain of Cytochrome P450 2C9 (P11712 whole entry): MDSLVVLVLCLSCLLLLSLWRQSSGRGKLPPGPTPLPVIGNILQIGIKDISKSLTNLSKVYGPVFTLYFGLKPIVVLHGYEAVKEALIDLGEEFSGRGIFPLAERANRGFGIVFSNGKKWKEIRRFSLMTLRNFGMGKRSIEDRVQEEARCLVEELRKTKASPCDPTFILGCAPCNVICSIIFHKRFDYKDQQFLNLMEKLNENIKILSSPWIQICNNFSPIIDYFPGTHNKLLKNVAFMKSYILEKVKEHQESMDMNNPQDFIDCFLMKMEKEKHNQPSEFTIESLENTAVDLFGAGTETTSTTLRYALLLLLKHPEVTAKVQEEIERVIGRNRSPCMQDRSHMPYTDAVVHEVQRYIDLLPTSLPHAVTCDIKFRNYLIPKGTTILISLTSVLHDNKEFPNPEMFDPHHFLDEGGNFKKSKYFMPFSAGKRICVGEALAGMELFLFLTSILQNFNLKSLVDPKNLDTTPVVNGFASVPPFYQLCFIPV
Chain of 5-hydroxytryptamine receptor 4 (O70528 whole entry): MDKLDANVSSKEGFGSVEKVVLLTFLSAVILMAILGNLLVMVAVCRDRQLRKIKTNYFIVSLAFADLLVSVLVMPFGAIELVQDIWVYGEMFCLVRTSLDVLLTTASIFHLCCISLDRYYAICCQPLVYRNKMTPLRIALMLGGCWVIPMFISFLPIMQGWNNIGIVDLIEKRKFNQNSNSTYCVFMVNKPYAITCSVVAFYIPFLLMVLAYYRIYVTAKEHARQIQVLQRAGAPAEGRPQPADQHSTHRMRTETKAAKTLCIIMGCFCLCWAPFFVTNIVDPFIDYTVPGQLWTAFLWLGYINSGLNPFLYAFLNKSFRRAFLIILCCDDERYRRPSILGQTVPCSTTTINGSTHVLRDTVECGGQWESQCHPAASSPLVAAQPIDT

Question: Which IC50 [1] does the source give for `NC(=O)N1C(=O)/C(=C(\O)c2cccs2)c2cc(Cl)ccc21` [TENIDAP] here?
Answer: Not Active

Question: What about the IC50 (Cytochrome P450 1A2) of the same compound?
Answer: 1000 nM

Question: What about the IC50 (Cytochrome P450 2C9) of the same compound?
Answer: 700 nM

Question: What about the IC50 (Androgen receptor) of the same compound?
Answer: Not Active

Question: What about the IC50 (Cytochrome P450 2C19) of the same compound?
Answer: Not Active

Question: And the Ki (Cytochrome P450 2C19)?
Answer: Not Active
